The target in this assay is Nav 1.7 (Homo sapiens (Human), UniProt Q15858). The assay is described as follows: in-vitro Nav 1.7 PX (IC50). The assay is classed as cell-based. Conditions: in-vitro Nav 1.7 PX data.
Chain of Nav 1.7 (Q15858 whole entry): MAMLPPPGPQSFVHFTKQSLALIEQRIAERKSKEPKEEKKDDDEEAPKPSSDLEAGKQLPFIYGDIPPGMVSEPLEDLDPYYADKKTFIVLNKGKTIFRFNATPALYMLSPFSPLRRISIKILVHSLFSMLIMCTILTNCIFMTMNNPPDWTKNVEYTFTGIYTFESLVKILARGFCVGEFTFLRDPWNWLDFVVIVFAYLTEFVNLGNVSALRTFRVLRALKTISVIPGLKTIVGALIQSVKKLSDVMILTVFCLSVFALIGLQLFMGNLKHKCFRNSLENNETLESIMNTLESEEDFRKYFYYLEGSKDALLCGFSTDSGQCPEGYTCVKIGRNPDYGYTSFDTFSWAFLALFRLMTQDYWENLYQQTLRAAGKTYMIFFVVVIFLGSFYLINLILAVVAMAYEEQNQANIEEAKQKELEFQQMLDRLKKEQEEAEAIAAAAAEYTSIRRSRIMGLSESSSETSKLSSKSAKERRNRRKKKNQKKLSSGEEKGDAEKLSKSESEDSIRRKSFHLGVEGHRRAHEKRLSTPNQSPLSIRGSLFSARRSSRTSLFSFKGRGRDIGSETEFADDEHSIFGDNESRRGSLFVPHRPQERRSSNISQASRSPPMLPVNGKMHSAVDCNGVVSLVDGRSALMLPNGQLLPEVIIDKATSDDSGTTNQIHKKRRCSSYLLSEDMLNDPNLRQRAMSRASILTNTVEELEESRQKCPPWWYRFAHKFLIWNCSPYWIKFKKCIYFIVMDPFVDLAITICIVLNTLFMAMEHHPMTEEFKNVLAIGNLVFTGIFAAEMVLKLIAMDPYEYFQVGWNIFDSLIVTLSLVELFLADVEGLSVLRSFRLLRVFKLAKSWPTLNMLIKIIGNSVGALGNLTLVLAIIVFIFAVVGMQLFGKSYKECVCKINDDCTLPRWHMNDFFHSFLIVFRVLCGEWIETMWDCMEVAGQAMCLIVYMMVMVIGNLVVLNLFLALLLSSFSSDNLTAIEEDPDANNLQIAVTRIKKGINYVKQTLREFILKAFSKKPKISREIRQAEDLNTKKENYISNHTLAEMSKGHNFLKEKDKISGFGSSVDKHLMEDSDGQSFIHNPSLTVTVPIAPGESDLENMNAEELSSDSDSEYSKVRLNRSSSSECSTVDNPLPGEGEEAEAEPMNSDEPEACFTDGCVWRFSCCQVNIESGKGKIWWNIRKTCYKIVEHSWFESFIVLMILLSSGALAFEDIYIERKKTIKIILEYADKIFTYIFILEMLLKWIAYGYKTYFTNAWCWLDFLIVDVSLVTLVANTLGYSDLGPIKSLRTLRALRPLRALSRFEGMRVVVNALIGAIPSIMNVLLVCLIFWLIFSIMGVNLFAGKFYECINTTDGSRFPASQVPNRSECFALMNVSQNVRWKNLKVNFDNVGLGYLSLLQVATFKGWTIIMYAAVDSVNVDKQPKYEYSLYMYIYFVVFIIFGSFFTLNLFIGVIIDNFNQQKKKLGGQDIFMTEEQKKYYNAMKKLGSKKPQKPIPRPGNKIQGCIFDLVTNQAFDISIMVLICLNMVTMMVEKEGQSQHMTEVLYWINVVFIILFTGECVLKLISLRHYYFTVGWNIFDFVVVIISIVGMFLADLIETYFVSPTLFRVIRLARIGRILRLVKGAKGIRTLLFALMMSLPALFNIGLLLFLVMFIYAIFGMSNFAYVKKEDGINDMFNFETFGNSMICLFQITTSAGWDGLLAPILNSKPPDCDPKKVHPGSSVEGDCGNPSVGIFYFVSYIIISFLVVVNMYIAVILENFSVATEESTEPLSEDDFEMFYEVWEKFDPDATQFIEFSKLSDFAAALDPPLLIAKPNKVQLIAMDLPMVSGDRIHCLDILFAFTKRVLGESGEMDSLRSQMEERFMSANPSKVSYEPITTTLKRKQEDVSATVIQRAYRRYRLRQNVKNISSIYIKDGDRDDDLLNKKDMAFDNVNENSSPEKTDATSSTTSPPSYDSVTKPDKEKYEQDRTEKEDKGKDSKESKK
Broadly, the IC50 is the concentration needed to halve the response being measured. Read a high IC50 as lower potency. In turn, `COc1cc(-c2cccc(OC)c2Cl)ccc1-n1c(=O)ccc2cc(S(=O)(=O)Nc3ccon3)ccc21` [Example 782, 1-(2′-chloro-3,3′-dimethoxy-4-biphenylyl)-N-3-isoxazolyl-2-oxo-1,2-dihydro-6-quinolinesulfonamide] showed an IC50 of 87 nM.
As for `COc1cc(-c2cccc(C(C)C)c2)ccc1-n1c(=O)ccc2cc(S(=O)(=O)Nc3ccon3)ccc21` [Example 783, N-3-isoxazolyl-1-(3-methoxy-3′-(1-methylethyl)-4-biphenylyl)-2-oxo-1,2-dihydro-6-quinolinesulfonamide], the figure is 9 nM.
As for `COc1cc(C)cc(-c2ccc(-n3c(=O)ccc4cc(S(=O)(=O)Nc5ccon5)ccc43)c(OC)c2)c1` [Example 784, 1-(3,3′-dimethoxy-5′-methyl-4-biphenylyl)-N-3-isoxazolyl-2-oxo-1,2-dihydro-6-quinolinesulfonamide], the figure is 20 nM; as for `COc1cc(-c2cccc(OC)c2F)ccc1-n1c(=O)ccc2cc(S(=O)(=O)Nc3ccon3)ccc21` [Example 785, 1-(2′-fluoro-3,3′-dimethoxy-4-biphenylyl)-N-3-isoxazolyl-2-oxo-1,2-dihydro-6-quinolinesulfonamide], 66 nM.
The result for `COc1cc(-c2cccc(OC(F)F)c2)ccc1-n1c(=O)ccc2cc(S(=O)(=O)Nc3ccon3)ccc21` [Example 786, 1-(3′-(difluoromethoxy)-3-methoxy-4-biphenylyl)-N-3-isoxazolyl-2-oxo-1,2-dihydro-6-quinolinesulfonamide] reads 48 nM; that for `COc1cc(-c2cccc(OC)c2C)ccc1-n1c(=O)ccc2cc(S(=O)(=O)Nc3ccon3)ccc21` [Example 787, 1-(3,3′-dimethoxy-2′-methyl-4-biphenylyl)-N-3-isoxazolyl-2-oxo-1,2-dihydro-6-quinolinesulfonamide], 52 nM.
`COc1cc(-c2cccc(C3CC3)c2)ccc1-n1c(=O)ccc2cc(S(=O)(=O)Nc3ccon3)ccc21` [Example 788, 1-(3′-cyclopropyl-3-methoxy-4-biphenylyl)-N-3-isoxazolyl-2-oxo-1,2-dihydro-6-quinolinesulfonamide] returned an IC50 of 6 nM.
As for `COc1cc(-c2cccc3c2OCC3)ccc1-n1c(=O)ccc2cc(S(=O)(=O)Nc3ccon3)ccc21` [Example 789, 1-(4-(2,3-dihydro-1-benzofuran-7-yl)-2-methoxyphenyl)-N-3-isoxazolyl-2-oxo-1,2-dihydro-6-quinolinesulfonamide], the figure is 89 nM; as for `COc1cc(-c2cccc(C3CC3)c2)c(F)cc1-n1c(=O)ccc2cc(S(=O)(=O)Nc3ccon3)ccc21` [Example 790, 1-(3′-cyclopropyl-2-fluoro-5-methoxy-4-biphenylyl)-N-3-isoxazolyl-2-oxo-1,2-dihydro-6-quinolinesulfonamide], 5 nM.
The result for `CCc1cccc(-c2cc(OC)c(-n3c(=O)ccc4cc(S(=O)(=O)Nc5ccon5)ccc43)cc2F)c1` [Example 791, 1-(3′-ethyl-2-fluoro-5-methoxy-4-biphenylyl)-N-3-isoxazolyl-2-oxo-1,2-dihydro-6-quinolinesulfonamide] reads 9 nM; that for `COc1cc(-c2cccc(C)c2OC)c(F)cc1-n1c(=O)ccc2cc(S(=O)(=O)Nc3ccon3)ccc21` [Example 792, 1-(2-fluoro-2′,5-dimethoxy-3′-methyl-4-biphenylyl)-N-3-isoxazolyl-2-oxo-1,2-dihydro-6-quinolinesulfonamide], 38 nM.
As for `COc1cc(C)ccc1-c1cc(OC)c(-n2c(=O)ccc3cc(S(=O)(=O)Nc4ccon4)ccc32)cc1F` [Example 793, 1-(2-fluoro-2′,5-dimethoxy-4′-methyl-4-biphenylyl)-N-3-isoxazolyl-2-oxo-1,2-dihydro-6-quinolinesulfonamide], the figure is 48 nM; as for `COc1cc(-c2cccc(C(F)(F)F)n2)c(F)cc1-n1c(=O)ccc2cc(S(=O)(=O)Nc3ccon3)ccc21` [Example 794, 1-(5-fluoro-2-methoxy-4-(6-(trifluoromethyl)-2-pyridinyl)phenyl)-N-3-isoxazolyl-2-oxo-1,2-dihydro-6-quinolinesulfonamide], 96 nM.

(Values after patent US9212182B2, “Bicyclic sulfonamide compounds as sodium channel inhibitors” (AMGEN INC., priority 2013, dated 2015).)
